Patent US20210214375A1 (LUNDBECK LA JOLLA RESEARCH CENTER, INC., priority 2017, published 2021)
Like-named read-outs stand apart in the source and are kept apart here.

Key:
MAGL [1] = target: T1, MAGL (Homo sapiens, UniProt Q99685); assay: In vitro competitive activity-based protein profiling (gel-based, FP-Rh or HT-01 probe); type: biochemical
T1 construct: Proteomes (human prefrontal cortex or cell membrane fractions); from tissue
T1 sequence (Q99685 1-303): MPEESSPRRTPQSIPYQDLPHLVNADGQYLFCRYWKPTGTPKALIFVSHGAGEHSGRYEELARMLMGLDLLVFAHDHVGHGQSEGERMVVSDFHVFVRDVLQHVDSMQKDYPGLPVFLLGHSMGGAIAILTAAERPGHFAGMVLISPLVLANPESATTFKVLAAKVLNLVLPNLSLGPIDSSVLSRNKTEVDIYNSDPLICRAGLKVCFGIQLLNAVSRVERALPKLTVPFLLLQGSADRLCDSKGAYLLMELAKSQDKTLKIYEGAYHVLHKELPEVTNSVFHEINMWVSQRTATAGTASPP
Method in brief: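 Readout is SDS-PAGE of probe-labelled proteome after FP-Rh or HT-01 (1.0 μL, 50 μM stock) labelling for 30 min at room temperature. Beforehand, inhibitors at varying concentrations were preincubated 30 min at 37° C with human prefrontal cortex or cell membrane fractions at 1.0 mg/mL total protein.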

MAGL [2] = target: T2, MAGL (Mus musculus, UniProt O35678); assay: Mouse brain proteomes from inhibitor treated mice (oral gavage, brain proteomes analyzed 4 h after administration); type: in vivo, mouse (C57Bl/6J); settings: brain proteome 4 h after administration, read-out: % Inh 5 mg/kg MGLL (Mouse)
T2 construct: from tissue; host or cells: brain of wild-type C57Bl/6J mice
T2 sequence (O35678 1-303): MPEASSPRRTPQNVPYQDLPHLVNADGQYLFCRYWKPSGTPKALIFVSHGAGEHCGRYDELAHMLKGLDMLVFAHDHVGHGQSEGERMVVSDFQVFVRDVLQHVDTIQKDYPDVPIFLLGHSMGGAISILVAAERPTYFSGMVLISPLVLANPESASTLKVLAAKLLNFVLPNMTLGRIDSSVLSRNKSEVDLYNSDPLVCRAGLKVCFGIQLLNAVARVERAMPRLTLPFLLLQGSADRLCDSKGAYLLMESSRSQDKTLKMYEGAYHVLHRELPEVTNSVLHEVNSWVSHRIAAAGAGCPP
Method: Compounds are tested to assess their MAGL and serine hydrolase activity using the following in vitro and in vivo assays.
Preparation of Mouse Brain Proteomes from Inhibitor Treated Mice.
Inhibitors were administered to wild-type C57Bl/6J by oral gavage in a vehicle of polyethylene glycol. Each animal was sacrificed 4 h following administration and brain proteomes were prepared and analyzed according to previously established methods (See Niphakis, M. J., et al. (2011) ACS Chem. Neurosci. and Long, J. Z., et al. Nat. Chem. Biol. 5:37-44).

[3] = PC3 proteome, read-out: IC50 MGLL PC3 (Human)
[4] = PFC (prefrontal cortex) proteome

Row | Structure (SMILES) | IC50 (MAGL [1]; [3]) | inhibition at 5 mg/kg (MAGL [2]) | IC50 (MAGL [1]; PFC (prefrontal cortex) proteome, read-out: IC50 MGLL PFC (Human)) | % Inh MGLL PFC (Human, μM) (MAGL [1]; [4])
1 | O=C(OC(C(F)(F)F)C(F)(F)F)N1CCC2(CCCN2Cc2ccc(C(F)(F)F)cc2C2(C(=O)O)CCCC2)CC1 [Example 7, 1-(2-((8-(((1,1,1,3,3,3-hexafluoropropan-2-yl)oxy)carbonyl)-1,8-diazaspiro[4.5]decan-1-yl)methyl)-5-(trifluoromethyl)phenyl)cyclopentane-1-carboxylic acid] | < 100 nM | ≥ 75% | – | –
2 | CN(Cc1ccc(C(F)(F)F)cc1N1CCC(C(=O)O)C1)C1(C)CCN(C(=O)OC(C(F)(F)F)C(F)(F)F)CC1 (stereo not drawn) [Example 118, 1-(2-(((1-(((1,1,1,3,3,3-Hexafluoropropan-2-yl)oxy)carbonyl)-4-methylpiperidin-4-yl)(methyl)amino)methyl)-5-(trifluoromethyl)phenyl)pyrrolidine-3-carboxylic acid] | < 100 nM | ≥ 75% | – | –
3 | CN(Cc1cc(N2CCOC(C)(C(=O)O)C2)cc(C(F)(F)F)c1)C1(C)CCN(C(=O)OC(C(F)(F)F)C(F)(F)F)CC1 (stereo not drawn) [Example 139] | < 100 nM | ≤ 25% | < 100 nM | –
4 | O=C(OC(C(F)(F)F)C(F)(F)F)N1CCC2(CCCN2Cc2cc(Cl)cc(C3(C(=O)O)CCCC3)c2)CC1 [Example 134, 1-{3-Chloro-5-[(8-{[(1,1,1,3,3,3-hexafluoropropan-2-yl)oxy]carbonyl}-1,8-diazaspiro[4.5]decan-1-yl)methyl]phenyl} cyclopentane-1-carboxylic acid] | < 100 nM | ≥ 75% | – | ### (### is ≥ 75%)
5 | O=C(O)CN1CC2(CCN(c3cc(C(F)(F)F)ccc3CN3CCCC34CCN(C(=O)OC(C(F)(F)F)C(F)(F)F)CC4)CC2)C1 [Example 157, 2-(7-(2-((8-(((1,1,1,3,3,3-Hexafluoropropan-2-yl)oxy)carbonyl)-1,8-diazaspiro[4.5]decan-1-yl)methyl)-5-(trifluoromethyl)phenyl)-2,7-diazaspiro[3.5]nonan-2-yl)acetic acid] | < 100 nM | ≤ 25% | – | –
6 | CN(Cc1ccc(C(F)(F)F)cc1CN1CCC(C(=O)O)CC1)C1(C)CCN(C(=O)OC(C(F)(F)F)C(F)(F)F)CC1 [Example 137, 1-(2-(((1-(((1,1,1,3,3,3-Hexafluoropropan-2-yl)oxy)carbonyl)-4-methylpiperidin-4-yl)(methyl)amino)methyl)-5-(trifluoromethyl)benzyl)piperidine-4-carboxylic acid] | < 100 nM | ≥ 75% | – | ### (### is ≥ 75%)
7 | O=C(O)CN1CCC2(CC1)CCN(c1cc(C(F)(F)F)ccc1CN1CCCC13CCN(C(=O)OC(C(F)(F)F)C(F)(F)F)CC3)C2 [Example 154, 2-(2-(2-((8-(((1,1,1,3,3,3-Hexafluoropropan-2-yl)oxy)carbonyl)-1,8-diazaspiro[4.5]decan-1-yl)methyl)-5-(trifluoromethvl)phenyl)-2,8-diazaspiro[4.5]decan-8-yl)acetic acid] | < 100 nM | ≤ 25% | – | –
8 | O=C(O)CN1CCC2(CCN(c3cc(C(F)(F)F)ccc3CN3CCCC34CCN(C(=O)OC(C(F)(F)F)C(F)(F)F)CC4)CC2)C1 [Example 153, 2-(8-(2-((8-(((1,1,1,3,3,3-Hexafluoropropan-2-yl)oxy)carbonyl)-1,8-diazaspiro[4.5]decan-1-yl)methyl)-5-(trifluoromethyl)phenyl)-2,8-diazaspiro[4.5]decan-2-yl)acetic acid] | < 100 nM | ≤ 25% | – | –
9 | CN(Cc1ccc(C(F)(F)F)cc1C1(C(=O)O)CCCC1)C1(C)CCN(C(=O)OC(C(F)(F)F)C(F)(F)F)CC1 [Example 133, 1-(2-{[(1-{[(1,1,1,3,3,3-Hexafluoropropan-2-yl)oxy]carbonyl}-4-methylpiperidin-4-yl)(methyl)amino]methyl}-5-(trifluoromethyl)phenyl)cyclopentane-1-carboxylic acid] | < 100 nM | ≥ 75% | – | ### (### is ≥ 75%)
10 | CC(C)(C#Cc1c(Cl)cccc1CN1CCCC12CCN(C(=O)OC(C(F)(F)F)C(F)(F)F)CC2)C(=O)O [Example 1, 4-(2-Chloro-6-((8-(((1,1,1,3,3,3-hexafluoropropan-2-yl)oxy)carbonyl)-1,8-diazaspiro[4.5]decan-1-yl)methyl)phenyl)-2,2-dimethylbut-3-ynoic acid] | < 100 nM | 25 to 75% | – | ### (### is ≥ 75%)
11 | O=C(O)CN1CC2CN(c3cc(C(F)(F)F)ccc3CN3CCCC34CCN(C(=O)OC(C(F)(F)F)C(F)(F)F)CC4)CC2C1 (stereo not drawn) [Example 155] | < 100 nM | ≤ 25% | – | –
12 | O=C(O)C1CCN(c2c(Cl)cccc2CN2CCC3(CC2)CCN(C(=O)OC(C(F)(F)F)C(F)(F)F)C3)CC1 [Example 218, 1-(2-Chloro-6-((2-(((1,1,1,3,3,3-hexafluoropropan-2-yl)oxy)carbonyl)-2,8-diazaspiro[4.5]decan-8-yl)methyl)phenyl) piperidine-4-carboxylic acid] | < 100 nM | ≥ 75% | – | –
13 | O=C(O)CN1CCC2(CC1)CN(c1cc(C(F)(F)F)ccc1CN1CCCC13CCN(C(=O)OC(C(F)(F)F)C(F)(F)F)CC3)C2 [Example 156, 2-(2-(2-((8-(((1,1,1,3,3,3-Hexafluoropropan-2-yl)oxy)carbonyl)-1,8-diazaspiro[4.5]decan-1-yl)methyl)-5-(trifluoromethyl)phenyl)-2,7-diazaspiro[3.5]nonan-7-yl)acetic acid] | < 100 nM | ≤ 25% | – | –
14 | CC(C)(C#Cc1cc(C(F)(F)F)ccc1CN1CCCC12CCN(C(=O)OC(C(F)(F)F)C(F)(F)F)CC2)C(=O)O [Example 5, 4-(2-((8-(((1,1,1,3,3,3-Hexafluoropropan-2-yl)oxy)carbonyl)-1,8-diazaspiro[4.5]decan-1-yl)methyl)-5-(trifluoromethyl)phenyl)-2,2-dimethylbut-3-ynoic acid] | < 100 nM | ≥ 75% | – | –
15 | CN(Cc1ccc(Cl)cc1C1(C(=O)O)CCCC1)C1(C)CCN(C(=O)OC(C(F)(F)F)C(F)(F)F)CC1 [Example 142, 1-(5-Chloro-2-{[(1-{[(1,1,1,3,3,3-hexafluoropropan-2-yl)oxy]carbonyl}-4-methylpiperidin-4-yl)(methyl)amino]methyl}phenyl) cyclopentane-1-carboxylic acid] | < 100 nM | ≥ 75% | – | ### (### is ≥ 75%)
16 | CC1(C(=O)O)CCCN(c2cc(C(F)(F)F)ccc2CN2CC3(CCN(C(=O)OC(C(F)(F)F)C(F)(F)F)CC3)C2)C1 (stereo not drawn) [Example 112, 1-(2-((7-(((1,1,1,3,3,3-Hexafluoropropan-2-yl)oxy)carbonyl)-2,7-diazaspiro[3.5]nonan-2-yl)methyl)-5-(trifluoromethyl)phenyl)-3-methylpiperidine-3-carboxylic acid] | < 100 nM | ≤ 25% | – | –
17 | CN(Cc1ccc(F)cc1C1(C(=O)O)CCCC1)C1(C)CCN(C(=O)OC(C(F)(F)F)C(F)(F)F)CC1 [Example 143, 1-(5-Fluoro-2-{[(1-{[(1,1,1,3,3,3-hexafluoropropan-2-yl)oxy]carbonyl}-4-methylpiperidin-4-yl)(methyl)amino]methyl}phenyl) cyclopentane-1-carboxylic acid] | < 100 nM | ≥ 75% | – | ### (### is ≥ 75%)
18 | CC1(C(=O)O)CN(c2cc(C(F)(F)F)ccc2CN2CC3(CCN(C(=O)OC(C(F)(F)F)C(F)(F)F)CC3)C2)CCO1 (stereo not drawn) [Example 130, 4-(2-((7-(((1,1,1,3,3,3-Hexafluoropropan-2-yl)oxy)carbonyl)-2,7-diazaspiro[3.5]nonan-2-yl)methyl)-5-(trifluoromethyl)phenyl)-2-methylmoipholine-2-carboxylic acid] | < 100 nM | ≤ 25% | – | –
19 | CN(Cc1ccc(C(F)(F)F)cc1N1CCC(C(=O)O)CC1)C1(C)CCN(C(=O)OC(C(F)(F)F)C(F)(F)F)CC1 [Example 14, 1-(2-(((1-(((1,1,1,3,3,3-Hexafluoropropan-2-yl)oxy)carbonyl)-4-methylpiperidin-4-yl)(methyl)amino)methyl)-5-(trifluoromethyl)phenyl)piperidine-4-carboxylic acid] | < 100 nM | ≥ 75% | – | –
